The structures appear in SMILES notation. Converted amounts (≈) assume the structure as drawn.

For assay [1], the system named is Escherichia coli. The experiment in a line: Minimum inhibitory concentration against Escherichia coli (EC) in Davis minimal media under Aerobic conditions(in vitro). It is filed as functional.
The subject of assay [2] is Escherichia coli. In words: Minimum inhibitory concentration against Escherichia coli (EC) in Davis minimal media under Anaerobic conditions(in vitro). It is filed as functional.
The test system of assay [3] is Escherichia coli. In words: Minimum inhibitory concentration against Escherichia coli (EC) in Davis minimal media under Anaerobic conditions(in vitro); No indication of toxicity. It is filed as functional, organism-based.
The test system of assay [4] is Escherichia coli. In words: Minimum inhibitory concentration against Escherichia coli (EC) in Davis minimal media under aerobic conditions(in vitro); No indication of toxicity. The class given is functional, organism-based.

For orientation: MIC means the smallest concentration in the dilution series that meets the test's criterion for growth inhibition. `CC(=O)OC[C@H]1O[C@@H]([n+]2ccc(Cl)c([O-])n2)[C@H](O)[C@@H]1O`: the MIC in the assay on Escherichia coli [1] and in the assay with Escherichia coli [2] was 25 mg/L (≈ 82.1 µM) in each case. In turn, `COc1cc[n+]([C@@H]2O[C@H](CO)[C@@H](O)[C@H]2O)nc1[O-]` showed an MIC with Escherichia coli [2] of 100 mg/L (≈ 387 µM).

`N.[O-]c1n[n+]([C@@H]2O[C@H](CO)[C@@H](O)[C@H]2O)ccc1S` yielded an MIC with Escherichia coli [2] of 100 mg/L. In the assay on Escherichia coli [2], `Nc1cc[n+]([C@@H]2O[C@H](CO)[C@@H](O)[C@H]2O)nc1[O-]` came in with a minimum inhibitory concentration (MIC) of 100 mg/L (≈ 411 µM). `[O-]c1n[n+]([C@@H]2O[C@H](CO)[C@@H](O)[C@H]2O)ccc1Cl`: the MIC in the assay on Escherichia coli [1] and against Escherichia coli [2] was 0.2 mg/L (≈ 0.761 µM) each time. In the case of `N#Cc1cc[n+]([C@@H]2O[C@H](CO)[C@@H](O)[C@H]2O)nc1[O-]`, the MIC with Escherichia coli [1] came to 0.78 mg/L (≈ 3.08 µM); against Escherichia coli [2], 3.1 mg/L (≈ 12.2 µM). For `NC(=O)c1cc[n+]([C@@H]2O[C@H](CO)[C@@H](O)[C@H]2O)nc1[O-]`, the MIC result in the assay on Escherichia coli [3] and with Escherichia coli [4] was “No indication of toxicity” in each case.

Compound `CC(=O)OC[C@H]1O[C@@H]([n+]2ccc(C#N)c([O-])n2)[C@H](O)[C@@H]1O` yielded an MIC with Escherichia coli [1] of 100 mg/L (≈ 339 µM).

(Values after ChEMBL document CHEMBL1122535, “Mesoionic pyridazine ribonucleosides. A novel biologically active nucleoside metabolite” (1984).)
